PubChem BioAssay AID179 (DTP/NCI, 2004)
Activity calls are given as the source filed them.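 How the source made its calls: active means compounds giving half or more protection of infected cells from virus-caused growth loss, again on retest; inactive means the rest.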

System: CEM cells HIV-1 protection, formazan growth assay
Assay: NCI AIDS Antiviral Assay
Conditions: for IC50: measured here: growth of uninfected CEM cells
Procedure, shortened: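 Five concentrations of each compound were applied to infected and uninfected human CEM cells. Protection from HIV-1 was judged from growth measured with a soluble formazan assay.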

In the case of `COCN1C(=O)CN=C(c2ccccc2)c2cc(NO)ccc21`, the EC50 is reported as 16.2 µM and the IC50 is reported as 21.9 µM.

`COC1OC2COC(C)(C)OC2C2OC(C)(C)OC12` (centres undefined) was tested, and the EC50 was > 200 µM and the IC50 was 182 µM.

With `Cc1ccc(S(=O)(=O)c2ccsc2NC(=O)c2ccccc2)cc1` the EC50 was > 100 µM and the IC50 was > 100 µM.

In the case of `COc1cc(/C=C2\C(=O)N(C(=O)c3ccc(NC(C)=O)cc3)N=C2C)ccc1O`, the EC50 is reported as > 66.1 µM and the IC50 is reported as > 66.1 µM.

`COC1OCC(N)C(O)C1O` (centres undefined) was tested, and the outcome was “inactive”.

With `CC(C)OC(=O)/C=C/C(=O)O/C=C/[N+](=O)[O-]` the EC50 was > 200 µM and the IC50 was 105 µM.

`O=C(O)C1=CN=C(C(=O)O)NN1` was tested, and the EC50 was > 1150 µM and the IC50 was 617 µM.

For `Nc1nc(Cl)cc(NCCCCCCNc2cc(Cl)nc(N)n2)n1`, the outcome was “inactive”.

In the case of `c1ccc2c(c1)SCCC2NC1=NCCO1` (centres undefined), the EC50 is reported as > 200 µM and the IC50 is reported as 162 µM.

`Cn1c2ccccc2c2nnc(-n3nc(-c4ccccc4)cc3N)nc21` was tested, and the EC50 was > 200 µM and the IC50 was 53.7 µM.

`COc1ccc(C2c3cc(O)c(OC)cc3Oc3cc(OC)c(O)cc32)cc1` was tested, and the EC50 was > 200 µM and the IC50 was 8.51 µM.

With `CCOC(=O)C1SC(=Nc2ccc(Cl)cc2Cl)N=C1C` (centres undefined) the outcome was “inactive”.

With `COC1=C(C(=O)OC(C)(C)C)[C@]2(C)C(C(=O)OC(C)(C)C)C(OC)=C(C(=O)OC(C)(C)C)[C@]2(C)C1C(=O)OC(C)(C)C` (some centres undefined) the outcome was “inactive”.

`CC(=O)Nc1ccc(C(=O)NN2C(=O)C(Cl)C2c2ccccc2O)cc1` (centres undefined) was tested, and the EC50 was > 200 µM and the IC50 was 31.6 µM.

With `C[C@]12Cc3cn[nH]c3C(=O)C1CC[C@@H]1C2CC[C@@]2(C)C1CC[C@]2(C)O` (some centres undefined) the EC50 was > 38 µM and the IC50 was > 38 µM.

With `CC(=O)OC1CCCn2c1nc1c2C(=O)C(C)=C(N2CC2)C1=O` (centres undefined) the outcome was “inactive”.

With `CCCCCCCCCCCCCCCCCCOP1(=O)OCCO1` the EC50 was > 50.1 µM and the IC50 was > 50.1 µM.

With `COc1ccc(C(c2c(O)c3ccccc3oc2=O)N2CCOCC2)cc1` (centres undefined) the EC50 was > 200 µM and the IC50 was > 100 µM.

For `COc1ccccc1N=Nc1c(S(=O)(=O)O)cc2cc(NC(=O)Nc3ccc4c(O)c(N=Nc5c(N)ccc6cc(S(=O)(=O)O)ccc56)c(S(=O)(=O)O)cc4c3)ccc2c1O`, the outcome was “active”.

For `CC(C)(C)OC(=O)N1N=NC2C3OC(CC3=O)C21` (centres undefined), the EC50 was > 708 µM and the IC50 was 355 µM.

With `COc1ccc(NC(=O)CC(=O)N2N=C(N(CCC#N)c3ccc(Cl)cc3)CC2c2ccccc2)cc1` (centres undefined) the EC50 was > 36.3 µM and the IC50 was > 36.3 µM.

For `C/C=C/C(=O)[C@@H](O)C(C)C`, the outcome was “inactive”.

For `Cc1nc2c(N)c3nc(C)n(N)c(=O)c3cc2c(=O)n1N`, the EC50 was > 2.14 µM and the IC50 was > 2.14 µM.

In the case of `CSc1nc[nH]c1C(N)=S`, the EC50 is reported as > 200 µM and the IC50 is reported as > 200 µM.

In the case of `CCOC(=O)[C@H]1Nc2c(cccc2[N+](=O)[O-])C2c3ccccc3CC21` (some centres undefined), the EC50 is reported as > 15.5 µM and the IC50 is reported as > 15.5 µM.

In the case of `CC(N)S(=O)(=O)O` (centres undefined), the EC50 is reported as > 200 µM and the IC50 is reported as 158 µM.

With `C#CC(O)/C=C/C(O)CCCC(O)CC#CC(O)C#CC(O)CCCC(O)/C=C/CCCC(=O)CCCCCCCCCCCCCCCC(O)C(O)C#CC(=O)O` (centres undefined) the EC50 was 10 µM and the IC50 was 53.7 µM.

For `CCOP(C)(=O)C(N)Cc1ccc(OC)c(OC)c1` (centres undefined), the EC50 was > 200 µM and the IC50 was > 200 µM.

In the case of `Cc1ccc(C2=Nc3ccc(F)cc3SC(C(=O)O)C2)cc1` (centres undefined), the outcome is reported as “inactive”.

For `O=C1CC2(CCC3=C(O2)c2ccccc2NC(=O)C3)C(=O)c2ccccc2N1` (centres undefined), the EC50 was > 69.2 µM and the IC50 was > 69.2 µM.

With `CC(C)N(C(=O)C1(C)CC1)C(C)C` the EC50 was > 1350 µM and the IC50 was > 1350 µM.

For `C[n+]1c(-c2ccc(/C=N/NC(=O)c3ccc(C(=O)N/N=C/c4ccc(-c5cn6ccccc6[n+]5C)cc4)nc3)cc2)cn2ccccc21`, the EC50 was 2.63 µM and the IC50 was 21.9 µM.

`N#Cc1c(N)c2c(c(-c3ccccc3)c1-c1ccccc1)C(=O)N(N)C2=O` was tested, and the EC50 was > 200 µM and the IC50 was 117 µM.

With `O=C(/C=C\c1ccccc1)c1ccc(-c2ccc([N+](=O)[O-])cc2)cc1` the outcome was “inactive”.

In the case of `CC(C)(C)[Si](C)(C)OCC1OC(n2ccc(=O)[nH]c2=O)C(O[Si](C)(C)C(C)(C)C)/C1=C/CO` (centres undefined), the EC50 is reported as > 200 µM and the IC50 is reported as 8.32 µM.

In the case of `C=CC(CCCCCCCC(=O)O)S(=O)(=O)O` (centres undefined), the EC50 is reported as > 200 µM and the IC50 is reported as > 200 µM.

`CN1c2ccccc2C(=O)NC12CCN(Cc1ccccc1)CC2` was tested, and the EC50 was > 200 µM and the IC50 was 120 µM.

For `Cc1ccccc1-n1c(=O)c2ncn(CCCl)c2n(-c2ccccc2C)c1=S`, the EC50 was > 200 µM and the IC50 was 102 µM.

`O=[N+]([O-])c1ccc(C2OCC3CSCN32)cc1` (centres undefined) was tested, and the EC50 was > 39.8 µM and the IC50 was > 39.8 µM.

With `O=C(NCc1ccccc1O)c1ccc(O)cc1O` the EC50 was > 200 µM and the IC50 was 110 µM.

`C/C(=N\NC(=S)N1CCN(C2CCCCCC2)CC1)c1ccccn1` was tested, and the EC50 was > 138 µM and the IC50 was 0.955 µM.

`COC(=O)c1c2c(cc3c1CC1(Cc4cc5c(c(C(C)=O)c4C1)CCCC5)C3)CCCC2` (centres undefined) was tested, and the EC50 was > 200 µM and the IC50 was > 200 µM.

In the case of `CCOP(=O)(C/C(=N/NC(C)(C)C)C(=O)Nc1nc2ccc(C)cc2s1)OCC`, the EC50 is reported as > 58.9 µM and the IC50 is reported as > 58.9 µM.

In the case of `O=c1c(O)c(-c2ccc(-c3oc4ccccc4c(=O)c3O)cc2)oc2ccccc12`, the EC50 is reported as > 200 µM and the IC50 is reported as 93.3 µM.
